Data: the NIST ThermoML archive (doi:10.1021/je9002306)

Legend:
[1] = cn = amount concentration of the nth substance listed, in mol/dm3; conditions: 298.15 K, 101.3 kPa, Liquid, Wayne-Kerr 6430B Auto Balance Bridge
[2] = mn = molality of the nth substance listed, in mol/kg; conditions: 298.15 K, 101.3 kPa, Liquid, Vibrating tube method

CCCCCCCCCCn1cc[n+](C)c1.[Br-] [1-decyl-3-methylimidazolium bromide] + CN(C)C=O
Conditions | mass density [kg/m3] | molar conductivity [S·m2/mol]
[1], c1 = 0.0001732 | – | 0.007794
[1], c1 = 0.0002484 | – | 0.007742
[1], c1 = 0.0003119 | – | 0.007708
[1], c1 = 0.0003859 | – | 0.007672
[1], c1 = 0.0004585 | – | 0.007636
[1], c1 = 0.0005275 | – | 0.007607
[1], c1 = 0.0005939 | – | 0.007575
[1], c1 = 0.0006636 | – | 0.007549
[1], c1 = 0.0007275 | – | 0.007523
[1], c1 = 0.0007761 | – | 0.007502
[2], m1 = 0.004548 | 944.601 | –
[2], m1 = 0.009331 | 944.904 | –
[2], m1 = 0.01416 | 945.206 | –
[2], m1 = 0.01889 | 945.493 | –
[2], m1 = 0.02351 | 945.774 | –
[2], m1 = 0.02843 | 946.065 | –
[2], m1 = 0.03329 | 946.353 | –
[2], m1 = 0.03813 | 946.64 | –
[2], m1 = 0.04346 | 946.942 | –
[2], m1 = 0.04852 | 947.237 | –

CCCCCCCCCCn1cc[n+](C)c1.[Br-] [1-decyl-3-methylimidazolium bromide] + C[S+](C)[O-]
Conditions | mass density [kg/m3] | molar conductivity [S·m2/mol]
[1], c1 = 0.0002071 | – | 0.003508
[1], c1 = 0.0003447 | – | 0.003485
[1], c1 = 0.0004551 | – | 0.003472
[1], c1 = 0.000577 | – | 0.003459
[1], c1 = 0.0006934 | – | 0.003446
[1], c1 = 0.0008066 | – | 0.003433
[1], c1 = 0.0008974 | – | 0.003426
[1], c1 = 0.001043 | – | 0.003413
[1], c1 = 0.001234 | – | 0.003397
[2], m1 = 0.005147 | 1095.4 | –
[2], m1 = 0.00868 | 1095.45 | –
[2], m1 = 0.01336 | 1095.53 | –
[2], m1 = 0.01682 | 1095.59 | –
[2], m1 = 0.02087 | 1095.65 | –
[2], m1 = 0.02779 | 1095.77 | –
[2], m1 = 0.03347 | 1095.87 | –
[2], m1 = 0.04096 | 1096 | –
[2], m1 = 0.04462 | 1096.07 | –
[2], m1 = 0.05299 | 1096.22 | –

CCCCCCCCCCn1cc[n+](C)c1.[Br-] [1-decyl-3-methylimidazolium bromide] + OCCO
Conditions | mass density [kg/m3] | molar conductivity [S·m2/mol]
[1], c1 = 0.0003546 | – | 0.000667
[1], c1 = 0.0004359 | – | 0.000666
[1], c1 = 0.0005147 | – | 0.000664
[1], c1 = 0.0005865 | – | 0.000663
[1], c1 = 0.0006739 | – | 0.000661
[1], c1 = 0.0007633 | – | 0.00066
[1], c1 = 0.0008415 | – | 0.000659
[1], c1 = 0.0009056 | – | 0.000658
[1], c1 = 0.0009847 | – | 0.000657
[1], c1 = 0.001065 | – | 0.000656
[2], m1 = 0.005851 | 1109.99 | –
[2], m1 = 0.0106 | 1110 | –
[2], m1 = 0.01551 | 1110 | –
[2], m1 = 0.01977 | 1110.01 | –
[2], m1 = 0.02479 | 1110.01 | –
[2], m1 = 0.02646 | 1110.02 | –
[2], m1 = 0.03544 | 1110.02 | –
[2], m1 = 0.03722 | 1110.02 | –
[2], m1 = 0.04453 | 1110.03 | –

CCCCCCCCCCCCn1cc[n+](C)c1.[Br-] [1-dodecyl-3-methylimidazolium bromide] + CN(C)C=O
Conditions | mass density [kg/m3] | molar conductivity [S·m2/mol]
[1], c1 = 0.0001357 | – | 0.007691
[1], c1 = 0.0001826 | – | 0.007656
[1], c1 = 0.0002263 | – | 0.007631
[1], c1 = 0.0002718 | – | 0.007605
[1], c1 = 0.0003169 | – | 0.007581
[1], c1 = 0.0003578 | – | 0.007564
[1], c1 = 0.0004043 | – | 0.007541
[1], c1 = 0.0004399 | – | 0.007527
[1], c1 = 0.0004725 | – | 0.00751
[1], c1 = 0.0005219 | – | 0.007494
[2], m1 = 0.003861 | 944.545 | –
[2], m1 = 0.008055 | 944.798 | –
[2], m1 = 0.0123 | 945.047 | –
[2], m1 = 0.01627 | 945.277 | –
[2], m1 = 0.02032 | 945.508 | –
[2], m1 = 0.02446 | 945.745 | –
[2], m1 = 0.02703 | 945.89 | –
[2], m1 = 0.03337 | 946.237 | –
[2], m1 = 0.03725 | 946.45 | –
[2], m1 = 0.04099 | 946.651 | –

CCCCCCCCCCCCn1cc[n+](C)c1.[Br-] [1-dodecyl-3-methylimidazolium bromide] + C[S+](C)[O-]
Conditions | mass density [kg/m3] | molar conductivity [S·m2/mol]
[1], c1 = 0.0003026 | – | 0.003442
[1], c1 = 0.0003758 | – | 0.003429
[1], c1 = 0.0004555 | – | 0.003416
[1], c1 = 0.0005343 | – | 0.003406
[1], c1 = 0.0006078 | – | 0.003397
[1], c1 = 0.0006771 | – | 0.003389
[1], c1 = 0.0007464 | – | 0.003381
[1], c1 = 0.0008059 | – | 0.003374
[1], c1 = 0.0009021 | – | 0.003365
[2], m1 = 0.00268 | 1095.36 | –
[2], m1 = 0.004967 | 1095.36 | –
[2], m1 = 0.007868 | 1095.37 | –
[2], m1 = 0.01038 | 1095.38 | –
[2], m1 = 0.01304 | 1095.39 | –
[2], m1 = 0.016 | 1095.41 | –
[2], m1 = 0.01873 | 1095.42 | –
[2], m1 = 0.02082 | 1095.43 | –
[2], m1 = 0.02457 | 1095.44 | –
[2], m1 = 0.02736 | 1095.46 | –
